Experimental data published in US20200024278A1, “COMPOSITION COMPRISING ANTIBIOTIC COMPOUND AND AN HETEROCYCLIC COMPOUND AND THEIR USE IN PREVENTING OR TREATING BACTERIAL INFECTIONS” (MUTABILIS, priority 2016, published 2020).

Legend:
Experiment in all cases: MIC, broth microdilution (CLSI), substance alone or ATB combined with compound at 4 or 8 μg/mL
ECO 190317 = assay type: cell-based, E. coli; details: ECO 190317
Summary of the method: (§1)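 Antibiotic MICs were determined in presence of fixed compound at 4 or 8 μg/mL, and compound MICs alone, by visual growth inhibition. Inoculum 5·10^5 CFU/mL in ca-MHB, incubated 35 °C for 16-20 h per CLSI-M7-A7. Glucose-6-phosphate (25 μg/ml) added when fosfomycin was tested.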

ECO UFR39 = assay type: cell-based, E. coli; details: ECO UFR39
Summary of the method: as §1

KPN 6299 = assay type: cell-based, K. pneumoniae
Description: (§2) Compounds of the present invention were assessed against genotyped bacterial strains alone or in combination with an antibacterial. In the assays, MICs of said compounds or combination of antibiotics with fixed concentrations of said compounds (4 or 8 μg/mL) were determined by the broth microdilution method according to the Clinical Laboratory Standards Institute (CLSI-M7-A7). Briefly, compounds alone according to the invention were prepared in DMSO and spotted (2 μL each) on sterile polystyrene plates (Corning, 3788). Combinations of compounds and antibiotics dilutions were prepared in DMSO and spotted (1 μL each) on sterile polystyrene plates (Corning, 3788). Log phase bacterial suspensions were adjusted to a final density of 5·10^5 CFU/mL in cation-adjusted Mueller-Hinton broth (ca-MHB; Becton-Dickinson and Company) and added to each well (98 μL). Assays including Fosfomycin were supplemented with 25 μg/ml of Glucose-6-phosphate. Microplates were incubated for 16-20 h at 35° C. in ambient air. The MIC of the compounds was defined as the lowest concentration of said compounds that prevented bacterial growth as read by visual inspection. The MIC of ATB at each compound concentration was defined as the lowest concentration of ATB that prevented bacterial growth as read by visual inspection.

KPN BAA-1898 = assay type: cell-based, K. pneumoniae; details: KPN BAA-1898
Description: as §2

KPN UFR42 = assay type: cell-based, K. pneumoniae; details: KPN UFR42
Description: as §2

ECL P99 = assay type: cell-based, E. cloacae; details: ECL P99
Summary of the method: as §1

PAE 105250 = assay type: cell-based, P. aeruginosa; details: PAE 105250
Summary of the method: as §1

PAE UFR48 = assay type: cell-based, P. aeruginosa; details: PAE UFR48
Summary of the method: as §1

PAE UFR90 = assay type: cell-based, P. aeruginosa; details: PAE UFR90
Summary of the method: as §1

SAU 29213 = assay type: cell-based, S. aureus; details: SAU 29213
Summary of the method: as §1

SPN 49619 = assay type: cell-based, S. pneumoniae; details: SPN 49619
Summary of the method: as §1

CO/N=C(\C(=O)N[C@@H]1C(=O)N2C(C(=O)[O-])=C(C[n+]3cccc4c3CCC4)CS[C@H]12)c1csc(N)n1 [CPO]
32 µg/mL: MIC ATB alone (PAE 105250; CPO alone) | MIC ATB alone (PAE 105250; antibiotic alone) | MIC ATB combined with Example 9 @4 μg/ml (PAE 105250; with Example 9 @4 μg/ml)
0.063 µg/mL: MIC ATB combined with Example 7 @8 μgml (KPN 6299; with Example 7 at 8 μg/ml) | MIC ATB combined with Example 13 @8 μg/ml (ECL P99; with Example 13 at 8 μg/ml)
0.125 µg/mL: MIC ATB combined with Example 13 @8 μg/ml (KPN 6299; with Example 13 at 8 μg/ml) | MIC ATB combined with Example 1 @8 μg/ml (KPN BAA-1898; with Example 1 @8 μg/ml) | MIC ATB combined with Example 1 @8 μg/ml (KPN BAA-1898; with Example 1 at 8 μg/ml)
<=0.031 μg/mL: MIC ATB combined with Example 15 @4 μgml (ECO 190317; with Example 15 at 4 μg/ml) | MIC ATB combined with Example 9 @4 μg/ml (KPN 6299; with Example 9 @4 μg/ml) | MIC ATB combined with Example 9 @4 μg/ml (KPN 6299; with Example 9 at 4 μg/ml) | MIC ATB combined with Example 15 @4 μgml (KPN 6299; with Example 15 at 4 μg/ml) | MIC ATB combined with Example 11 @8 μg/ml (KPN BAA-1898; with Example 11 at 8 μg/ml) | MIC ATB combined with Example 15 @4 μgml (KPN BAA-1898; with Example 15 at 4 μg/ml) | MIC ATB combined with Example 7 @8 μgml (ECL P99; with Example 7 at 8 μg/ml) | MIC ATB alone (SPN 49619; CPO alone) | MIC ATB alone (SPN 49619; antibiotic alone) | MIC ATB combined with Example 1 @8 μg/ml (SPN 49619; with Example 1 @8 μg/ml) | MIC ATB combined with Example 9 @4 μg/ml (SPN 49619; with Example 9 @4 μg/ml)
16 µg/mL: MIC ATB combined with Example 1 @8 μg/ml (KPN UFR42; with Example 1 @8 μg/ml) | MIC ATB alone (ECL P99; antibiotic alone)
>32 µg/mL: MIC ATB alone (ECO UFR39; CPO alone) | MIC ATB alone (ECO UFR39; antibiotic alone) | MIC ATB alone (KPN UFR42; CPO alone) | MIC ATB alone (KPN UFR42; antibiotic alone) | MIC ATB alone (PAE UFR48; CPO alone) | MIC ATB alone (PAE UFR48; antibiotic alone) | MIC ATB combined with Example 9 @4 μg/ml (PAE UFR48; with Example 9 @4 μg/ml) | MIC ATB alone (PAE UFR90; CPO alone) | MIC ATB alone (PAE UFR90; antibiotic alone)
>256 µg/mL: MIC ATB alone (ECO 190317; antibiotic alone) | MIC ATB alone (KPN 6299; antibiotic alone) | MIC ATB alone (KPN BAA-1898; antibiotic alone)
1 µg/mL: MIC ATB alone (SAU 29213; CPO alone) | MIC ATB alone (SAU 29213; antibiotic alone) | MIC ATB combined with Example 1 @8 μg/ml (SAU 29213; with Example 1 @8 μg/ml)
0.5 µg/mL: MIC ATB combined with Example 1 @8 μg/ml (KPN 6299; with Example 1 @8 μg/ml) | MIC ATB combined with Example 1 @8 μg/ml (KPN 6299; with Example 1 at 8 μg/ml) | MIC ATB combined with Example 13 @8 μg/ml (KPN BAA-1898; with Example 13 at 8 μg/ml)
8 µg/mL: MIC ATB combined with Example 9 @4 μg/ml (PAE UFR90; with Example 9 @4 μg/ml)
<0.031 µg/mL: MIC ATB combined with Example 1 @8 μg/ml (ECO 190317; with Example 1 @8 μg/ml) | MIC ATB combined with Example 1 @8 μg/ml (ECO 190317; with Example 1 at 8 μg/ml) | MIC ATB combined with Example 7 @8 μgml (ECO 190317; with Example 7 at 8 μg/ml) | MIC ATB combined with Example 9 @4 μg/ml (ECO 190317; with Example 9 @4 μg/ml) | MIC ATB combined with Example 9 @4 μg/ml (ECO 190317; with Example 9 at 4 μg/ml) | MIC ATB combined with Example 11 @8 μg/ml (ECO 190317; with Example 11 at 8 μg/ml) | MIC ATB combined with Example 12 @8 μg/ml (ECO 190317; with Example 12 at 8 μg/ml) | MIC ATB combined with Example 13 @8 μg/ml (ECO 190317; with Example 13 at 8 μg/ml) | MIC ATB combined with Example 14 @8 μg/ml (ECO 190317; with Example 14 at 8 μg/ml) | MIC ATB combined with Example 16 @4 μg/ml (ECO 190317; with Example 16 at 4 μg/ml) | MIC ATB combined with Example 1 @8 μg/ml (ECO UFR39; with Example 1 @8 μg/ml) | MIC ATB combined with Example 9 @4 μg/ml (ECO UFR39; with Example 9 @4 μg/ml) | MIC ATB combined with Example 11 @8 μg/ml (KPN 6299; with Example 11 at 8 μg/ml) | MIC ATB combined with Example 12 @8 μg/ml (KPN 6299; with Example 12 at 8 μg/ml) | MIC ATB combined with Example 14 @8 μg/ml (KPN 6299; with Example 14 at 8 μg/ml) | MIC ATB combined with Example 16 @4 μg/ml (KPN 6299; with Example 16 at 4 μg/ml) | MIC ATB combined with Example 7 @8 μgml (KPN BAA-1898; with Example 7 at 8 μg/ml) | MIC ATB combined with Example 9 @4 μg/ml (KPN BAA-1898; with Example 9 @4 μg/ml) | MIC ATB combined with Example 9 @4 μg/ml (KPN BAA-1898; with Example 9 at 4 μg/ml) | MIC ATB combined with Example 12 @8 μg/ml (KPN BAA-1898; with Example 12 at 8 μg/ml) | MIC ATB combined with Example 14 @8 μg/ml (KPN BAA-1898; with Example 14 at 8 μg/ml) | MIC ATB combined with Example 16 @4 μg/ml (KPN BAA-1898; with Example 16 at 4 μg/ml) | MIC ATB combined with Example 9 @4 μg/ml (KPN UFR42; with Example 9 @4 μg/ml) | MIC ATB combined with Example 1 @8 μg/ml (ECL P99; with Example 1 @8 μg/ml) | MIC ATB combined with Example 1 @8 μg/ml (ECL P99; with Example 1 at 8 μg/ml) | MIC ATB combined with Example 9 @4 μg/ml (ECL P99; with Example 9 @4 μg/ml) | MIC ATB combined with Example 9 @4 μg/ml (ECL P99; with Example 9 at 4 μg/ml) | MIC ATB combined with Example 11 @8 μg/ml (ECL P99; with Example 11 at 8 μg/ml) | MIC ATB combined with Example 12 @8 μg/ml (ECL P99; with Example 12 at 8 μg/ml) | MIC ATB combined with Example 14 @8 μg/ml (ECL P99; with Example 14 at 8 μg/ml) | MIC ATB combined with Example 15 @4 μgml (ECL P99; with Example 15 at 4 μg/ml) | MIC ATB combined with Example 16 @4 μg/ml (ECL P99; with Example 16 at 4 μg/ml) | MIC ATB combined with Example 1 @8 μg/ml (PAE 105250; with Example 1 @8 μg/ml) | MIC ATB combined with Example 1 @8 μg/ml (PAE UFR48; with Example 1 @8 μg/ml) | MIC ATB combined with Example 1 @8 μg/ml (PAE UFR90; with Example 1 @8 μg/ml) | MIC ATB combined with Example 9 @4 μg/ml (SAU 29213; with Example 9 @4 μg/ml)
